Reference: ChEMBL document CHEMBL1201862, “PubChem BioAssay data set” (2004)
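Briefly, cells in 96-well plates were exposed to five compound concentrations for 48 h, and endpoints were estimated by linear interpolation. Here, GI50 denotes the concentration required for 50% inhibition of growth.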 Calls of active or inactive are those of the source. No stated cut-off is given here; in the data, active = GI50 up to about 1.1 µM and inactive = higher.

Experiments:
Assay in all cases: DTP human tumour cell line panel, 48 h
HOP-92 = test system: HOP-92
SNB-19 = test system: SNB-19
SK-MEL-28 = test system: SK-MEL-28
DU-145 = test system: DU-145
SN12C = test system: SN12C
NCI-H522 = test system: NCI-H522
K562 = test system: K562
A549 = test system: A549
BT-549 = test system: BT-549
M14 = test system: M14
CCRF-CEM = test system: CCRF-CEM
HT-29 = test system: HT-29
RXF 393 = test system: RXF 393
SW-620 = test system: SW-620
786-0 = test system: 786-0
MDA-N = test system: MDA-N
OVCAR-4 = test system: OVCAR-4
SNB-75 = test system: SNB-75
SF-539 = test system: SF-539
UACC-62 = test system: UACC-62
MDA-MB-231 = test system: MDA-MB-231
KM12 = test system: KM12
PC-3 = test system: PC-3
HL-60 = test system: HL-60
TK-10 = test system: TK-10
A498 = test system: A498
SF-268 = test system: SF-268
SR = test system: SR
OVCAR-3 = test system: OVCAR-3
NCI/ADR-RES = test system: NCI/ADR-RES
Malme-3M = test system: Malme-3M
LOX IMVI = test system: LOX IMVI
U-251 = test system: U-251
HCT-116 = test system: HCT-116
SF-295 = test system: SF-295
COLO 205 = test system: COLO 205
NCI-H226 = test system: NCI-H226
UO-31 = test system: UO-31
OVCAR-5 = test system: OVCAR-5
UACC-257 = test system: UACC-257
ACHN = test system: ACHN
CAKI-1 = test system: CAKI-1
MOLT-4 = test system: MOLT-4
MDA-MB-435 = test system: MDA-MB-435
SK-OV-3 = test system: SK-OV-3
MCF7 = test system: MCF7
NCI-H23 = test system: NCI-H23
OVCAR-8 = test system: OVCAR-8
HCT-15 = test system: HCT-15
Hs-578T = test system: Hs-578T
EKVX = test system: EKVX
SK-MEL-5 = test system: SK-MEL-5
SK-MEL-2 = test system: SK-MEL-2
IGROV-1 = test system: IGROV-1
NCI-H460 = test system: NCI-H460
HOP-62 = test system: HOP-62
HCC 2998 = test system: HCC 2998
T47D = test system: T47D
RPMI-8226 = test system: RPMI-8226

Compound: CC(C)CC(NC(O)[BH2-][N+](C)(C)C)C(=O)NC(Cc1ccccc1)C(=O)N[C@H]1c2ccsc2/C(=N/O)[C@H]1O (stereo partly drawn)
- GI50 (HOP-92): > 100 µM (inactive)
- GI50 (SNB-19): > 100 µM (inactive)
- GI50 (SK-MEL-28): > 100 µM (inactive)
- GI50 (DU-145): > 100 µM (inactive)
- GI50 (SN12C): > 100 µM (inactive)
- GI50 (NCI-H522): > 100 µM (inactive)
- GI50 (K562): > 100 µM (inactive)
- GI50 (A549): > 100 µM (inactive)
- GI50 (BT-549): > 100 µM (inactive)
- GI50 (M14): > 100 µM (inactive)
- GI50 (CCRF-CEM): > 100 µM (inactive)
- GI50 (HT-29): > 100 µM (inactive)
- GI50 (RXF 393): > 100 µM (inactive)
- GI50 (SW-620): > 100 µM (inactive)
- GI50 (786-0): > 100 µM (inactive)
- GI50 (MDA-N): > 100 µM (inactive)
- GI50 (OVCAR-4): > 100 µM (inactive)
- GI50 (SNB-75): > 100 µM (inactive)
- GI50 (SF-539): > 100 µM (inactive)
- GI50 (UACC-62): > 100 µM (inactive)
- GI50 (MDA-MB-231): > 100 µM (inactive)
- GI50 (KM12): > 100 µM (inactive)
- GI50 (PC-3): > 100 µM (inactive)
- GI50 (HL-60): > 100 µM (inactive)
- GI50 (TK-10): > 100 µM (inactive)
- GI50 (A498): > 100 µM (inactive)
- GI50 (SF-268): > 100 µM (inactive)
- GI50 (SR): > 100 µM (inactive)
- GI50 (OVCAR-3): > 100 µM (inactive)
- GI50 (NCI/ADR-RES): > 100 µM (inactive)
- GI50 (Malme-3M): > 100 µM (inactive)
- GI50 (LOX IMVI): > 100 µM (inactive)
- GI50 (U-251): > 100 µM (inactive)
- GI50 (HCT-116): > 100 µM (inactive)
- GI50 (SF-295): > 100 µM (inactive)
- GI50 (COLO 205): > 100 µM (inactive)
- GI50 (NCI-H226): > 100 µM (inactive)
- GI50 (UO-31): > 100 µM (inactive)
- GI50 (OVCAR-5): > 100 µM (inactive)
- GI50 (UACC-257): > 100 µM (inactive)
- GI50 (ACHN): > 100 µM (inactive)
- GI50 (CAKI-1): > 100 µM (inactive)
- GI50 (MOLT-4): > 100 µM (inactive)
- GI50 (MDA-MB-435): > 100 µM (inactive)
- GI50 (SK-OV-3): > 100 µM (inactive)
- GI50 (MCF7): > 100 µM (inactive)
- GI50 (NCI-H23): > 100 µM (inactive)
- GI50 (OVCAR-8): > 100 µM (inactive)
- GI50 (HCT-15): > 100 µM
- GI50 (Hs-578T): > 100 µM (inactive)
- GI50 (EKVX): > 100 µM (inactive)
- GI50 (SK-MEL-5): > 100 µM (inactive)
- GI50 (SK-MEL-2): > 100 µM (inactive)
- GI50 (IGROV-1): > 100 µM (inactive)
- GI50 (NCI-H460): > 100 µM (inactive)
- GI50 (HOP-62): > 100 µM (inactive)
- GI50 (HCC 2998): > 100 µM (inactive)
- GI50 (T47D): > 100 µM (inactive)
- GI50 (RPMI-8226): > 100 µM (inactive)

Compound: CCOP1(=O)CC(C)=C(Cl)C(O)C1 (stereo not drawn)
- GI50 (HOP-92): > 100 µM (inactive)
- GI50 (SNB-19): > 100 µM (inactive)
- GI50 (SK-MEL-28): > 100 µM (inactive)
- GI50 (DU-145): > 100 µM (inactive)
- GI50 (SN12C): > 100 µM (inactive)
- GI50 (NCI-H522): > 100 µM (inactive)
- GI50 (K562): > 100 µM (inactive)
- GI50 (A549): > 100 µM (inactive)
- GI50 (BT-549): > 100 µM (inactive)
- GI50 (M14): > 100 µM (inactive)
- GI50 (CCRF-CEM): > 100 µM (inactive)
- GI50 (HT-29): > 100 µM (inactive)
- GI50 (RXF 393): > 100 µM (inactive)
- GI50 (SW-620): > 100 µM (inactive)
- GI50 (786-0): > 100 µM (inactive)
- GI50 (MDA-N): > 100 µM (inactive)
- GI50 (OVCAR-4): > 100 µM (inactive)
- GI50 (SNB-75): 40.3 µM (inactive)
- GI50 (SF-539): > 100 µM (inactive)
- GI50 (UACC-62): > 100 µM (inactive)
- GI50 (MDA-MB-231): > 100 µM (inactive)
- GI50 (KM12): > 100 µM (inactive)
- GI50 (PC-3): > 100 µM (inactive)
- GI50 (HL-60): > 100 µM (inactive)
- GI50 (TK-10): > 100 µM (inactive)
- GI50 (A498): > 100 µM (inactive)
- GI50 (SF-268): > 100 µM (inactive)
- GI50 (SR): > 100 µM (inactive)
- GI50 (OVCAR-3): > 100 µM (inactive)
- GI50 (NCI/ADR-RES): > 100 µM (inactive)
- GI50 (Malme-3M): > 100 µM (inactive)
- GI50 (LOX IMVI): > 100 µM (inactive)
- GI50 (U-251): > 100 µM (inactive)
- GI50 (HCT-116): > 100 µM (inactive)
- GI50 (SF-295): > 100 µM (inactive)
- GI50 (COLO 205): > 100 µM (inactive)
- GI50 (NCI-H226): > 100 µM (inactive)
- GI50 (UO-31): > 100 µM (inactive)
- GI50 (OVCAR-5): > 100 µM (inactive)
- GI50 (UACC-257): > 100 µM (inactive)
- GI50 (ACHN): > 100 µM (inactive)
- GI50 (CAKI-1): > 100 µM (inactive)
- GI50 (MOLT-4): > 100 µM (inactive)
- GI50 (MDA-MB-435): > 100 µM (inactive)
- GI50 (SK-OV-3): > 100 µM (inactive)
- GI50 (MCF7): > 100 µM (inactive)
- GI50 (NCI-H23): > 100 µM (inactive)
- GI50 (OVCAR-8): > 100 µM (inactive)
- GI50 (HCT-15): > 100 µM
- GI50 (Hs-578T): > 100 µM (inactive)
- GI50 (EKVX): > 100 µM (inactive)
- GI50 (SK-MEL-5): > 100 µM (inactive)
- GI50 (SK-MEL-2): > 100 µM (inactive)
- GI50 (IGROV-1): > 100 µM (inactive)
- GI50 (NCI-H460): > 100 µM (inactive)
- GI50 (HOP-62): > 100 µM (inactive)
- GI50 (HCC 2998): > 100 µM (inactive)
- GI50 (T47D): > 100 µM (inactive)
- GI50 (RPMI-8226): > 100 µM (inactive)
